Assay results as given in PubChem BioAssay (NCI).
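Values below derive from 48-hour exposures of cells grown in 96-well plates, with endpoints linearly interpolated between the two concentrations bracketing the appropriate inhibition level. GI50 marks 50% less growth. At the TGI there is no net growth.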

How the values were obtained:
Assay in all cases: NCI tumour cell line growth inhibition, 48 h
786-0 renal = system: 786-0 renal
A498 renal = system: A498 renal
A549 NSCLC = system: A549 NSCLC
ACHN renal = system: ACHN renal
BT-549 breast = system: BT-549 breast
CAKI-1 renal = system: CAKI-1 renal
CCRF-CEM leukemia = system: CCRF-CEM leukemia
COLO 205 colon = system: COLO 205 colon
DU-145 prostate = system: DU-145 prostate
EKVX NSCLC = system: EKVX NSCLC
HCC-2998 colon = system: HCC-2998 colon
HCT-116 colon = system: HCT-116 colon
HCT-15 colon = system: HCT-15 colon
HL-60(TB) leukemia = system: HL-60(TB) leukemia
HOP-62 NSCLC = system: HOP-62 NSCLC
HOP-92 NSCLC = system: HOP-92 NSCLC
HS 578T breast = system: HS 578T breast
HT29 colon = system: HT29 colon
IGROV1 ovarian = system: IGROV1 ovarian
K-562 leukemia = system: K-562 leukemia
KM12 colon = system: KM12 colon
LOX IMVI melanoma = system: LOX IMVI melanoma
M14 melanoma = system: M14 melanoma
MALME-3M melanoma = system: MALME-3M melanoma
MCF7 breast = system: MCF7 breast
MDA-MB-231 breast = system: MDA-MB-231 breast
MDA-MB-435 = system: MDA-MB-435
MOLT-4 leukemia = system: MOLT-4 leukemia
NCI-H226 lung = system: NCI-H226 lung
NCI-H23 lung = system: NCI-H23 lung
NCI-H460 lung = system: NCI-H460 lung
NCI-H522 lung = system: NCI-H522 lung
NCI/ADR-RES ovarian = system: NCI/ADR-RES ovarian
OVCAR-3 ovarian = system: OVCAR-3 ovarian
OVCAR-4 ovarian = system: OVCAR-4 ovarian
OVCAR-5 ovarian = system: OVCAR-5 ovarian
OVCAR-8 ovarian = system: OVCAR-8 ovarian
PC-3 prostate = system: PC-3 prostate
RPMI-8226 leukemia = system: RPMI-8226 leukemia
RXF 393 renal = system: RXF 393 renal
SF-268 CNS = system: SF-268 CNS
SF-295 CNS = system: SF-295 CNS
SF-539 CNS = system: SF-539 CNS
SK-MEL-2 melanoma = system: SK-MEL-2 melanoma
SK-MEL-28 melanoma = system: SK-MEL-28 melanoma
SK-MEL-5 melanoma = system: SK-MEL-5 melanoma
SK-OV-3 ovarian = system: SK-OV-3 ovarian
SN12C renal = system: SN12C renal
SNB-19 CNS = system: SNB-19 CNS
SNB-75 CNS = system: SNB-75 CNS
SR leukemia = system: SR leukemia
SW-620 colon = system: SW-620 colon
T-47D breast = system: T-47D breast
TK-10 renal = system: TK-10 renal
U251 CNS = system: U251 CNS
UACC-257 melanoma = system: UACC-257 melanoma
UACC-62 melanoma = system: UACC-62 melanoma
UO-31 renal = system: UO-31 renal

O=C1/C(=C\c2ccccn2)c2ccccc2N1c1c(Cl)cccc1Cl
GI50 (786-0 renal): 1.84 µM | TGI (786-0 renal): 3.49 µM | GI50 (A498 renal): 2.1 µM | TGI (A498 renal): 5.98 µM | GI50 (A549 NSCLC): 2.29 µM | TGI (A549 NSCLC): 14.6 µM | GI50 (ACHN renal): 1.82 µM | TGI (ACHN renal): 3.91 µM | GI50 (BT-549 breast): 2.21 µM | TGI (BT-549 breast): 4.88 µM | GI50 (CAKI-1 renal): 1.83 µM | GI50 (CCRF-CEM leukemia): 3.31 µM | TGI (CCRF-CEM leukemia): > 100 µM | GI50 (COLO 205 colon): 2.04 µM | TGI (COLO 205 colon): 4.81 µM | GI50 (DU-145 prostate): 1.94 µM | TGI (DU-145 prostate): 3.95 µM | GI50 (EKVX NSCLC): 3.47 µM | TGI (EKVX NSCLC): 17.8 µM | GI50 (HCC-2998 colon): 1.86 µM | TGI (HCC-2998 colon): 3.3 µM | GI50 (HCT-116 colon): 1.7 µM | TGI (HCT-116 colon): 3.32 µM | GI50 (HCT-15 colon): 2.11 µM | TGI (HCT-15 colon): 5.3 µM | GI50 (HL-60(TB) leukemia): 3.75 µM | TGI (HL-60(TB) leukemia): > 29.6 µM | GI50 (HOP-62 NSCLC): 2.07 µM | TGI (HOP-62 NSCLC): 5.04 µM | TGI (HOP-92 NSCLC): 6.28 µM | GI50 (HS 578T breast): 3.92 µM | TGI (HS 578T breast): 37.4 µM | GI50 (HT29 colon): 2.53 µM | TGI (HT29 colon): 5.75 µM | GI50 (IGROV1 ovarian): 2.26 µM | TGI (IGROV1 ovarian): 6.92 µM | GI50 (K-562 leukemia): 3.89 µM | TGI (K-562 leukemia): > 100 µM | GI50 (KM12 colon): 1.69 µM | TGI (KM12 colon): 3.22 µM | GI50 (LOX IMVI melanoma): 1.68 µM | TGI (LOX IMVI melanoma): 3.21 µM | GI50 (M14 melanoma): 1.78 µM | TGI (M14 melanoma): 3.72 µM | GI50 (MALME-3M melanoma): 1.74 µM | TGI (MALME-3M melanoma): 4.89 µM | GI50 (MCF7 breast): 2.41 µM | TGI (MCF7 breast): 14.3 µM | GI50 (MDA-MB-231 breast): 2.17 µM | TGI (MDA-MB-231 breast): 5.74 µM | GI50 (MDA-MB-435): 1.93 µM | TGI (MDA-MB-435): 5.03 µM | GI50 (MOLT-4 leukemia): 4.2 µM | TGI (MOLT-4 leukemia): > 65.7 µM | GI50 (NCI-H226 lung): 1.7 µM | TGI (NCI-H226 lung): 3.42 µM | GI50 (NCI-H23 lung): 3.29 µM | TGI (NCI-H23 lung): 15.3 µM | GI50 (NCI-H460 lung): 1.88 µM | TGI (NCI-H460 lung): 3.65 µM | GI50 (NCI-H522 lung): 1.98 µM | TGI (NCI-H522 lung): 4.81 µM | GI50 (NCI/ADR-RES ovarian): 2.51 µM | TGI (NCI/ADR-RES ovarian): 6.95 µM | GI50 (OVCAR-3 ovarian): 1.66 µM | TGI (OVCAR-3 ovarian): 3.25 µM | GI50 (OVCAR-4 ovarian): 3.14 µM | TGI (OVCAR-4 ovarian): 26.8 µM | GI50 (OVCAR-5 ovarian): 2.05 µM | TGI (OVCAR-5 ovarian): 4.81 µM | GI50 (OVCAR-8 ovarian): 2.41 µM | TGI (OVCAR-8 ovarian): 8.34 µM | GI50 (PC-3 prostate): 2.79 µM | TGI (PC-3 prostate): > 26.3 µM | GI50 (RPMI-8226 leukemia): 2.8 µM | TGI (RPMI-8226 leukemia): > 22.4 µM | GI50 (RXF 393 renal): 1.4 µM | TGI (RXF 393 renal): 2.73 µM | GI50 (SF-268 CNS): 2.96 µM | TGI (SF-268 CNS): 9.54 µM | GI50 (SF-295 CNS): 1.96 µM | TGI (SF-295 CNS): 5.72 µM | GI50 (SF-539 CNS): 2.44 µM | TGI (SF-539 CNS): 6.33 µM | GI50 (SK-MEL-2 melanoma): 2.53 µM | TGI (SK-MEL-2 melanoma): 6.32 µM | GI50 (SK-MEL-28 melanoma): 1.84 µM | TGI (SK-MEL-28 melanoma): 4.03 µM | GI50 (SK-MEL-5 melanoma): 1.61 µM | TGI (SK-MEL-5 melanoma): 3.03 µM | GI50 (SK-OV-3 ovarian): 3.01 µM | TGI (SK-OV-3 ovarian): 10.2 µM | GI50 (SN12C renal): 2.65 µM | TGI (SN12C renal): 12.5 µM | GI50 (SNB-19 CNS): 2.28 µM | TGI (SNB-19 CNS): 6.25 µM | GI50 (SNB-75 CNS): 2.01 µM | TGI (SNB-75 CNS): 15.4 µM | GI50 (SR leukemia): 5.07 µM | TGI (SR leukemia): > 100 µM | GI50 (SW-620 colon): 1.89 µM | TGI (SW-620 colon): 3.69 µM | GI50 (T-47D breast): 2.6 µM | TGI (T-47D breast): 9.66 µM | GI50 (TK-10 renal): 3.39 µM | TGI (TK-10 renal): 12.7 µM | GI50 (U251 CNS): 1.84 µM | TGI (U251 CNS): 3.68 µM | GI50 (UACC-257 melanoma): 2.2 µM | TGI (UACC-257 melanoma): 6.19 µM | GI50 (UACC-62 melanoma): 1.62 µM | TGI (UACC-62 melanoma): 3.68 µM | GI50 (UO-31 renal): 1.47 µM | TGI (UO-31 renal): 3.11 µM
